Measurements: publication PMC2193274 (The Journal of Experimental Medicine, 2000)

What was measured:
[1] = tested on: T2 cells expressing Qa-1^b (T237); type: cell-based, human; conditions: for Inhibition of killing of T237 targets by Qa-1^b-Qdm tetramer-positive NK cells: 30 μM peptide overnight and during the 4-h assay, Fig. 6
Qa-1^b = Qa-1^b (Mus musculus, UniProt P06339); type: binding; conditions: competition with biotin-Qdm4C
Dk = conditions: cited from earlier work

Sequence of Qa-1^b (P06339 21-304 limits assumed): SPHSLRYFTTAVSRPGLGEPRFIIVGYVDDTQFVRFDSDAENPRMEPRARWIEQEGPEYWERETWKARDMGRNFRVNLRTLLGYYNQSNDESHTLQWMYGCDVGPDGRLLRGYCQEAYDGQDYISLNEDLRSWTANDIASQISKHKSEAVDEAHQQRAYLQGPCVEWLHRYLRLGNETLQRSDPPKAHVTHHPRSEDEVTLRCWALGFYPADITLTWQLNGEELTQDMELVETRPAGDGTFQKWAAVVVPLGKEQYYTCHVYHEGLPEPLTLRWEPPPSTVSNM
Sequence of Qa-1^b (P61769 21-119 partner): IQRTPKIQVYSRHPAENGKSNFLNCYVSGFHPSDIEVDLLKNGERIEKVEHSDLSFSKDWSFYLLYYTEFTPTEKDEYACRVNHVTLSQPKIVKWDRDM

KMAPRTLLL [Qdm P1]
Inhibition of killing of T237 targets by Qa-1^b-Qdm tetramer-positive NK cells [1]: Substantial inhibition

AMACRTLLL [Qdm4C]
Binding affinity for Qa-1 in competition assays compared with Qdm (Qa-1^b): affinity similar or identical to Qdm

AMAPRTLLL [Qdm]
Inhibition of lysis of T237 targets by tetramer-negative NK cells [1]: does not inhibit lysis | Inhibition of killing of T237 targets by Qa-1^b-Qdm tetramer-positive NK cells [1]: markedly inhibit killing

RRLGRTLLL [MT(389–397)]
Binding to Dk (Dk): high affinity
